Here are results for five molecules from patent US20060287313A1, “Isoquinoline compounds and methods of use thereof” (Inotek Pharmaceuticals Corporation, priority 2005, published 2006).

One may read the IC50 as the concentration needed to halve the response being measured. The low end stands for greater potency in that assay, the high end for weaker potency in that assay. For orientation: EC50 means the concentration at which the effect is half-maximal.

One assay deals with T1, purified PARS enzyme (Homo sapiens, UniProt P09874).
T1 construct: purchased Trevigen, Gaithersburg, Md
In words: Purified PARS enzyme assay (Trevigen PARS inhibition assay kit). Type of assay: biochemical. The conditions noted are these: Table 1, inhibitory effect on PARS; assay not given. As for the experimental part:
The assay is performed in 96 well ELISA plates according to instructions provided with a commercially available PARS inhibition assay kit (for example, from Trevigen, Gaithersburg, Md.).
The assay was performed in 96 well ELISA plates according to instructions provided with a commercially available PARS inhibition assay kit (Trevigen, Gaithersburg, Md.). Briefly, wells were coated with 1 mg/ml histone (50 μl/well) at 4 C overnight. Plates were then washed four times with PBS and then blocked by adding 50 μl Strep-Diluent (supplied with the kit). After incubation (1 h, 25° C.), the plates were washed four times with PBS. […] The reaction was allowed to proceed for 30 min at room temperature. After 4 washes in PBS, incorporated biotin was detected by peroxidase-conjugated streptavidin (1:500 dilution) and TACS Sapphire substrate.

For the next assay, the target named is T2, PARS (Mus musculus, UniProt P11103).
T2 construct: endogenous in cells; host or cells: RAW murine macrophages
In words: Cell protection assay: PARS activity in peroxynitrite-treated raw murine macrophages. The class given is cell-based. The conditions noted are these: peroxynitrite 750 μM, 3H-NAD incorporation, calculated from a dose-response curve. As for the experimental part: The media was removed and replaced with 0.5 mL HEPES (pH 7.5) containing 0.01% digitonin and ^3H-NAD (0.5 μCi/mL, final concentration of NAD+ in buffer is […]) and the resultant mixture was allowed to stand for 20 minutes. […] The tubes were maintained at 4° C. for four hours, centrifuged at 1800 g for 10 minutes, and the supernatant removed. […] The contents of the tubes were then added to ScintiSafe Plus scintillation liquid (6.5 ml, Fisher Scientific) and radioactivity was measured using a liquid scintillation counter (Wallac, Gaithersburg, Md.).

Structures are written as SMILES.

T1 sequence (P09874 whole entry): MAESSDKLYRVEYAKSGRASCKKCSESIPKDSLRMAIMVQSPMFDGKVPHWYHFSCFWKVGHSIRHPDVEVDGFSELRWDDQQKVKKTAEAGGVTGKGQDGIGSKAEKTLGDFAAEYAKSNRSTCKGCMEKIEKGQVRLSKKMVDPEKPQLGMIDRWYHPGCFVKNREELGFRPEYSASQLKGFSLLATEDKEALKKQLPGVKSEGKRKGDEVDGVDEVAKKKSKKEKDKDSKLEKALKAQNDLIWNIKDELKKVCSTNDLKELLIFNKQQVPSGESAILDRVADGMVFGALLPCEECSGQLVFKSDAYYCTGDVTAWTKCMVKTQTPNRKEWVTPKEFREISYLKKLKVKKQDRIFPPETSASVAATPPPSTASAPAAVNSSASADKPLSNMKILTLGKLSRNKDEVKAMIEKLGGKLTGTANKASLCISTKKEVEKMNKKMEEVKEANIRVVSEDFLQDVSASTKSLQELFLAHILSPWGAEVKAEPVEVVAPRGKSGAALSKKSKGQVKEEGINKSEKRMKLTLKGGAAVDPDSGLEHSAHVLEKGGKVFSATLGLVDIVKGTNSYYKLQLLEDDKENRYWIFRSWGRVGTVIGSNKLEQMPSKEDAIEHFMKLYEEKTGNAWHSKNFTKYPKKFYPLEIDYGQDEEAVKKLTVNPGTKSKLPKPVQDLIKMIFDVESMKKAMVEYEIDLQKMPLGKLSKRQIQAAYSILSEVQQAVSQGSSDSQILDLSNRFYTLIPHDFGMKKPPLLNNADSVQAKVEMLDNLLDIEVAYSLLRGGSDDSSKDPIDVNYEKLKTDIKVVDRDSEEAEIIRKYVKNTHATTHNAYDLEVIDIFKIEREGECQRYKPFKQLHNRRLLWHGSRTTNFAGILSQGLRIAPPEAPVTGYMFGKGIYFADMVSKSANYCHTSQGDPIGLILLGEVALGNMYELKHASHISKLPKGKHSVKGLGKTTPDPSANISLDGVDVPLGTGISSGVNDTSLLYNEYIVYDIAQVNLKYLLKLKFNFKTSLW
T2 sequence (P11103 whole entry): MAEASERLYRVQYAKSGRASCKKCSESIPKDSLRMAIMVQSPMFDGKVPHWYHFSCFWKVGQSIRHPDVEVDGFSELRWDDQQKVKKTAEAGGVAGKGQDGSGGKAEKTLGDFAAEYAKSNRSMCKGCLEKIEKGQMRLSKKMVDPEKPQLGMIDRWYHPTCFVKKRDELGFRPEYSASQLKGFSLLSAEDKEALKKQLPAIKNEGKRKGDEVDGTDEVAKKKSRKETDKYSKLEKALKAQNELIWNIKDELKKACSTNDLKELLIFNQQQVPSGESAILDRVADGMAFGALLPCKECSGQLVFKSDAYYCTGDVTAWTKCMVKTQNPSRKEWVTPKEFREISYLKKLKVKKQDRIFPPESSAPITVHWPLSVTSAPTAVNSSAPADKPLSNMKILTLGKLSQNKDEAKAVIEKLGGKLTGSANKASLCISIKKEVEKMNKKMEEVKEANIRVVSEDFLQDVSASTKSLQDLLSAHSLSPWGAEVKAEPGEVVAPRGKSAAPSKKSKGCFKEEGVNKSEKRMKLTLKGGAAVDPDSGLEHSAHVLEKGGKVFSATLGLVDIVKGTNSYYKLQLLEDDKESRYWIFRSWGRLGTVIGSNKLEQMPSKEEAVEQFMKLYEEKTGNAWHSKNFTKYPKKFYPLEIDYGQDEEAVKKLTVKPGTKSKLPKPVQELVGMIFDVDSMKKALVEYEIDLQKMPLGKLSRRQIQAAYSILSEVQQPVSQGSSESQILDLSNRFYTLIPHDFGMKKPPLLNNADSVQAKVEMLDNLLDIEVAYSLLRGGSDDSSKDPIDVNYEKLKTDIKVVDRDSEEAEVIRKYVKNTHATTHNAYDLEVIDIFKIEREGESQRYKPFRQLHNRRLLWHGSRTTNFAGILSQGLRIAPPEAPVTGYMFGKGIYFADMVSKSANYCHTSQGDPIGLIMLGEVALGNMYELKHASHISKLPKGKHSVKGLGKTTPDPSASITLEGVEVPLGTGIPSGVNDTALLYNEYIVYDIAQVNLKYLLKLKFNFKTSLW

`CCCNC(=O)Nc1ccc2c(c1)Cc1c-2[nH]c(=O)c2ccccc12` [Compound 27] registered an IC50 against purified PARS enzyme of 100 nM.

As for `CN(C)CCC(=O)Nc1cccc2c1Cc1c-2[nH]c(=O)c2ccccc12` [Compound 3b], the EC50 at PARS was 280 nM.

`CN(C)CC(=O)Nc1cccc2c1Cc1c-2[nH]c(=O)c2ccccc12` [Compound 3a]: the EC50 on PARS was 200 nM.

Take `O=C(CN1CC=C(c2ccccc2)CC1)Nc1ccc2c(c1)Cc1c-2[nH]c(=O)c2ccccc12` [Compound 12a, N-(5-Oxo-5,11-dihydro-6H-indeno[1,2-c]isoquinolin-9-yl)-2-(4-phenyl-3,6-dihydro-2H-pyridin-1-yl)-acetamide]: on purified PARS enzyme, the IC50 was determined as 80 nM.

`CN(C)CC(=O)Nc1ccc2c(c1)-c1[nH]c(=O)c3ccccc3c1C2` [Compound 56a, N-[5,6-Dihydro-5-oxo-indeno[1,2-c]isoquinolin-8-yl]-N,N-dimethylacetamide]: at purified PARS enzyme, the IC50 amounted to 800 nM.
